The results in this text go back to patent US10889572B2, “Reactive oxygen species scavengers and use for treating diseases” (XW LABORATORIES INC., priority 2017, dated 2021).

Read-outs that look alike come from different tables or passages of the source.

Assay [1] relates to 3T3-L1 cells. Nature of the assay: Apoptosis assay (Caspase-Glo 3/7, Actinomycin D induced). It counts as cell-based. Particulars: 100 nM Actinomycin D, 48 hours, Caspase-Glo 3/7, 2 hours pre-treatment, read-out: EC50, Inhibition for Apoptosis in 3T3-L1 Cell induced by Actinomycin D. On the procedure:
Cell Lines and Media. 3T3-L1 cells were obtained from American Type Culture Collection. Cells were grown in DMEM completed media, 10% FBS, and penicillin-streptomycin mix (Invitrogen). Cells were maintained at 37° C. and 5% CO2 in a tissue culture incubator.
Apoptosis Assay. […] We used this assay to screen our compounds for apoptosis inhibition. Briefly, 40 μL of 3000 3T3-L1 cells were seeded per well in 384 well plates, cells were allowed to adhere overnight. In the next day, prepare the Actinomycin D as the apoptosis inducing agent into 100 μM DMSO stock. Prepare the test compounds into 10 mM DMSO stock. Serial dilute the compound into 10 points by 3-fold dilution with DMSO. Pre-treat the 3T3-L1 cells with test compound by transfer 40 nL of stock of serial concentration in triplicate wells using acoustic fluid transfer, incubate for 2 hours. Then transfer 40 nL of 100 μM of Actinomycin D (final concentration is 100 nM) into designated wells using acoustic fluid transfer. Incubate the assay plates at 37° C., 5% CO2, 95% humidity incubator for 48 hours. For caspase assay, add 20 μL/well of Caspase-Glo>3/7 reagent (Promega) into test wells. Incubate for 30 minutes at room temperature to stabilize the luminescence signal. Read the plate with EnSpire Multimode Plate Reader (PerkinElmer). Calculate the EC50 value using formula equation 201: y−(A+((B−A)/(1+((x/C)^D)))) from the XLFit (Excel add-in software), where
A: Average mean of vehicle samples
B: Average mean of cells treated with 100 nM AcD
Z′ factor was used to describe the screening assay perfonuance. The Z′ factor value was >0.5 in all the test plates which indicated the assay was qualified and the IC50 value was reliable for all tested compounds.

Assay [2] relates to HT-1080 (fibrosarcoma) cells. Briefly: Primary screening by ferroptosis assay (Erastin-induced, cell viability, CellTiter-Glo). It counts as cell-based. Particulars: HT-1080 cells, % remaining activity, read-out: EC50, Inhibition for Ferroptosis in HT-1080 Cell. On the procedure: Cell Lines and Media: HT-1080 (fibrosarcoma) cells were obtained from American Type Culture Collection. Cells were grown in EMEM media, 10% Heat-Inactivated FBS, and penicillin-streptomycin mix (Invitrogen). Cells were maintained at 37° C. and 5% CO2 in a tissue culture incubator.
Cell Viability Assay: Seed 10,000 cell/well of HT-1080 cells with 195 μL growth media in black and clear bottom 96-well plates (Cat #Corning 3904) and allow cells to adhere overnight. The next day, dilute test compound by 2-fold dilution into 12 points with medium containing 400 μM Erastin. Transfer 5 μL of compounds solution into growth medium in triplicated wells. 30 hours later, add Cell Titer-Glo® Luminescent cell viability assay reagent (Cat #, Promega G8081) to measure HT-1080 cell viability according to the manufacture protocol. Briefly, aspirate 100 μL medium, and add 50 μL CellTiter-Glo® Luminescent reagent to each well and incubated for 30 minutes at room temperature to stabilize the Luminescent signal. Seal the plates and centrifuged for 1 minute at 1,000 rpm to remove bubbles. Shake the plates for 1 minute on an orbital shaker. Read the plate to detect Luminescent signal with EnSpire Multimode Plate Reader (PerkinElmer). The remaining activity % is used to evaluate Erastin induced ferroptosis in HT-1080 cells and expressed as the following formula: % Remaining Activity−100×[(Sample−Backgroundavg)/(Vehicle−Background avg)]
Sample: Readout from the test compound
Vehicle: Readout from the vehicle sample
Background: Readout from the Erastin only treatment
Dose response curve is graphed by using the non-linear regression analysis (formula equation 201) in XLFit (Excel add-in software) for the average % remaining activity from triplicates, and the EC50 values is then calculated. In this anti-ferroptosis assay, ferrostatin-1, and XJB-5-131 are included as reference. The acceptance criteria were set based on historical result, mean±2.58*SD in logarithmic scale, meanwhile Z′>0.5.
In general terms: In ATP-based viability assays light output follows the ATP content of the culture.

One may read the EC50 as the concentration giving half of the maximal effect. As for `CC(C)C[C@@H](/C=C/[C@H](Cc1ccccc1)C(=O)N1CCC[C@H]1C(=O)N[C@@H](CCCNC(=O)OCc1ccccc1)C(=O)NC1CC(C)(C)N(O)C(C)(C)C1)NC(=O)OC(C)(C)C` [Example IX, Benzyl N-[(4S)—4-{[(2S)-1-[(2S,3E,5S)-2-benzyl-5-{[(tert-butoxy)carbonyl]amino}-7-methyloct-3-enoyl]pyrrolidin-2-yl]formamido}-4-[(1-hydroxy-2,2,6,6-tetramethylpiperidin-4-yl)carbamoyl]butyl]carbamate], the EC50 in assay [1] (Mus musculus, 3T3-L1) is 1.37 µM; in assay [2] (30 hours) it was 0.261 µM.
Regarding “1-Oxyl-2,2,6,6-tetramethylpiperidin-4-yl-N-[(4S)—4-{[(2S)-1-[(2S,3E,5S)-2-benzyl-5-{[(tert- butoxy)carbonyl]amino}-7-methyloct-3-enoyl]pyrrolidin-2-yl]formamido}-4-[(1-oxyl-2,2,6,6-tetramethylpiperidin-4-yl)carbamoyl]butyl]carbamate [Example XXXXII]”, the EC50 in assay [1] was 0.708 µM; in assay [2] (30 hours), 0.274 µM.
In the case of `CC(C)C[C@@H](/C=C/[C@H](Cc1ccccc1)C(=O)N1CCC[C@H]1C(=O)N[C@@H](CCCNC(=O)OC1CC(C)(C)N(O)C(C)(C)C1)C(=O)OC(C)C)NC(=O)OC(C)(C)C` [Example XXIX, Propan-2-yl (2S)—2-{[(2S)-1-[(2S,3E,5S)-2-benzyl-5-{[(tert-butoxy)carbonyl]amino}-7-methyloct-3-enoyl]pyrrolidin-2-yl]formamido}-5-({[(1-oxyl-2,2,6,6-tetramethylpiperidin-4-yl)oxy]carbonyl}amino)pentanoate], the EC50 in assay [1] (Mus musculus, 3T3-L1) was 4.32 µM; in assay [2] (Homo sapiens, HT-1080, 30 h), 0.073 µM.
As for `CC(C)C[C@@H](/C=C/[C@H](Cc1ccccc1)C(=O)N1CCC[C@H]1C(=O)N[C@@H](C(=O)N[C@@H](CCCNC(=O)OCc1ccccc1)C(=O)NC1CC(C)(C)N(O)C(C)(C)C1)C(C)C)NC(=O)OCC1CC1` [Example X, Cyclopropylmethyl N-[(4S,5E,7S)-7-benzyl-8-[(2S)—2-{[(1R)—1-{[(1S)—4-{[(benzyloxy)carbonyl]amino}-1-[(1-hydroxy-2,2,6,6-tetramethylpiperidin-4-yl)carbamoyl]butyl]carbamoyl}-2-methylpropyl]carbamoyl}pyrrolidin-1-yl]-2-methyl-8-oxooct-5-en-4-yl]carbamate], the EC50 in assay [1] (Mus musculus, 3T3-L1) came out at 1.38 µM; in assay [2] (Homo sapiens, 30 hours), 0.285 µM.
`CC(C)C[C@@H](/C=C/[C@H](Cc1ccccc1)C(=O)N1CCC[C@H]1C(=O)N[C@@H](C(=O)N[C@@H](CCCNC(=O)OCc1ccccc1)C(=O)NC1CC(C)(C)N(O)C(C)(C)C1)C(C)C)NC(=O)OC(C)(C)C` [Example IV]: the EC50 in assay [1] (Mus musculus, 3T3-L1) turned out to be 1.27 µM; in assay [2] (Homo sapiens, 30 hours), 0.564 µM.
As to `CC(C)C[C@@H](/C=C/[C@H](Cc1ccccc1)C(=O)N1CCC[C@H]1C(=O)N[C@@H](CCCNC(=O)OCc1ccccc1)C(=O)NC1CC(C)(C)N(O)C(C)(C)C1)NC(=O)OC(C)(C)C` [Example I, Benzyl N-[(4S)—4-{[(2S)-1-[(2S,3E,5S)-2-Benzyl-5-{[(Tert-Butoxy)Carbonyl]Amino}-7-Methyloct-3-Enoyl]Pyrrolidin-2-Yl]Formamido}-4-[(1-Oxyl-2,2,6,6-Tetramethylpiperidin-4-Yl)Carbamoyl]Butyl]Carbamate], the EC50 amounted to 1.57 µM in assay [1] and 0.26 µM in assay [2] (30 hours).
In the case of `CC(C)C[C@@H](/C=C/[C@H](Cc1ccccc1)C(=O)N1CCC[C@H]1C(=O)N[C@@H](C(=O)NC1CC(C)(C)N([O])C(C)(C)C1)C(C)C)NC(=O)OC(C)(C)C` [Example II, tert-Butyl ((4S,7S,E)-7-benzyl-8-((S)-2-(((R)-1-((1-oxyl-2,2,6,6-tetramethylpiperidin-4-yl)amino)-3-methyl-1-oxobutan-2-yl)carbamoyl)pyrrolidin-1-yl)-2-methyl-8-oxooct-5-en-4-yl)carbamate], the EC50 is 3.04 µM in assay [1] (Mus musculus, 3T3-L1) and 0.289 µM in assay [2] (Homo sapiens, 30 hours).
`COC(=O)[C@H](CCCNC(=O)OC1CC(C)(C)N(O)C(C)(C)C1)NC(=O)[C@@H](NC(=O)[C@@H]1CCCN1C(=O)[C@H](/C=C/[C@H](CC(C)C)NC(=O)OC(C)(C)C)Cc1ccccc1)C(C)C` [Example XXXVIII, (S)—Methyl 2-((S)-2-((S)-1-((2S,5S,E)-2-benzyl-5-((tert-butoxycarbonyl)amino)-7-methyloct-3-enoyl)pyrrolidine-2-carboxamido)-3-methylbutanamido)—5-((((1-oxyl-2,2,6,6-tetramethylpiperidin-4-yl)oxy)carbonyl)amino)pentanoate]: the EC50 in assay [1] (Mus musculus, 3T3-L1) was 2.65 µM; in assay [2] (Homo sapiens, HT-1080, 30 h), 0.076 µM.
On to `CC(C)C[C@@H](/C=C/[C@H](Cc1ccccc1)C(=O)N1CCC[C@H]1C(=O)NC(CCCNC(=O)OCc1ccccc1)C(=O)NC1CC(C)(C)N(O)C(C)(C)C1)NC(=O)OC(C)(C)C` (stereo in doubt) [Example V, Benzyl N-[(4R)—4-{[(2S)-1-[(2S,3E,5S)-2-benzyl-5-{[(tert-butoxy)carbonyl]amino}-7-methyloct-3-enoyl]pyrrolidin-2-yl]formamido}-4-[(1-hydroxy-2,2,6,6-tetramethylpiperidin-4-yl)carbamoyl]butyl]carbamate], for which the EC50 in assay [1] (Mus musculus, 3T3-L1) came to 1.31 µM; in assay [2] (Homo sapiens, HT-1080, 30 h) it was 0.141 µM.
For `CC(C)C[C@@H](/C=C/[C@H](Cc1ccccc1)C(=O)N1CCC[C@H]1C(=O)N[C@@H](CCCCNC(=O)OCc1ccccc1)C(=O)NC1CC(C)(C)N(O)C(C)(C)C1)NC(=O)OC(C)(C)C` [Example XXVI, Benzyl N—[(5 S)—5-{[(2S)-1-[(2S,3E,5S)-2-benzyl-5-{[(tert-butoxy)carbonyl]amino}-7-methyloct-3-enoyl]pyrrolidin-2-yl]formamido}-5-[(1-oxyl-2,2,6,6-tetramethylpiperidin-4-yl)carbamoyl]pentyl]carbamate], the EC50 is 0.683 µM in assay [1] (Mus musculus, 3T3-L1) and 0.14 µM in assay [2] (Homo sapiens, HT-1080, 30 h).
Regarding `CC(C)CC(C=CC(Cc1ccccc1)C(=O)N1CCCC1C(=O)NC(CCCNC(=O)OC1CC(C)(C)N([O])C(C)(C)C1)C(N)=O)NC(=O)OC(C)(C)C` [Example XXVIII, tert-Butyl N-[(4S,5E,7S)-7-benzyl-8-[(2S)—2-{[(1S)-1-carbamoyl-4-({[(1-oxyl-2,2,6,6-tetramethylpiperidin-4-yl)oxy]carbonyl}amino-)butyl]carbamoyl}pyrrolidin-1-yl]-2-methyl-8-oxooct-5-en-4-yl]carbamate], the EC50 in assay [1] turned out to be 3.93 µM; in assay [2] (30 hours), 0.251 µM.
`CC(C)C[C@@H](/C=C/[C@H](Cc1ccccc1)C(=O)N1CCC[C@H]1C(=O)N[C@@H](CCCNC(=O)OC1CC(C)(C)N(O)C(C)(C)C1)C(=O)NC(C)C)NC(=O)OC(C)(C)C` [Example XXXXIV, tert-Butyl N-[(4S,5E,7S)-7-benzyl-8-[(2S)—2-{[(1S)-4-({[(1-oxyl-2,2,6,6-tetramethylpiperidin-4-yl)oxy]carbonyl}amino)-1-[(propan-2-yl)carbamoyl]butyl]carbamoyl}pyrrolidin-1-yl]-2-methyl-8-oxooct-5-en-4-yl]carbamate]: the EC50 in assay [1] (Mus musculus, 3T3-L1) worked out at 0.628 µM; in assay [2] (Homo sapiens, HT-1080, 30 h), 0.14 µM.
